Assay results: US12138334B2, “Antidandruff composition” (Conopco, Inc., priority 2019, dated 2024)
Structures can show the parent of a compound that is named as a salt.

Legend:
[1] = test system: Malassezia furfur 14521; experiment: Antifungal activity on M. furfur (resazurin viability, MIC and ΣFIC); format: cell-based; conditions: M. furfur 14521, YPD broth, 30° C., 72 hours, resazurin colour
Procedure: The samples as given in Table 1 were subjected to their anti fungal efficacy on M. furfur as described hereinafter.
The test organism used in the assay is Malassezia furfur 14521. The M. furfur were revived from glycerol stock in YPD agar plates (yeast extract peptone dextrose media) containing 1% corn oil. The composition of YPD is yeast extract:10 g/litre, dextrose 20 g/litre, Peptone 20 g/litre and agarose 0.15%. The plates were incubated at 30° C. for 72 hours for forming fungal colonies. A suspension culture of M. furfur was made using the colonies from plates in YPD broth. The optical density of the suspension culture was adjusted to 0.6 using spectrophotometer. This suspension was diluted in the ratio of 1:10 using YPD broth and 100 μl of this culture was added into each well of 96 well test plate. A stock solution of 40× strength of piroctone olamine was prepared for each of the concentrations tested eg for 0.0.001% test concentration of piroctone olamine a stock of 0.04% was prepared in DMSO (dimethyl sulphoxide). 5 μl of piroctone olamine was added to 100 μl of M. furfur culture. A stock solution of 4× strength of itaconic acid or sodium benzoate was prepared for each of the concentrations tested e.g. for 0.0.001% test concentration of itaconic acid or sodium benzote a stock of 0.004% was prepared in YPD broth. 50 μl of itaconic acid or sodium benzoate was added to 100 μl of M. furfur culture. In wells containing only one test ingredient, (itaconic acid or sodium benzoate only) 50 μl of test ingredient was added to 100 μl of fungal culture and then made up the volume to 200 μl with YPD broth. In wells containing only piroctone olamine 5 μl of piroctone olamine was added to 100 μl of fungal culture and then made up the volume to 200 μl with YPD broth. […] The anti-fungal efficacy of the ingredient or combination of ingredients is calculated based on the colour development. […]
The combinations of test ingredients with synergistic anti-fungal benefits were evaluated using ΣFIC method. The ΣFIC of the combinations were calculated using the following formula: […]

[2] = cited from earlier work

Minimum inhibitory concentration (MIC) [1] [wt %]	Structure (SMILES)	solubility in 10% ethanol in water ([2]; 10% ethanol in water)	solubility in solution containing surfactants in water or in 1%-10% ethanol ([2]; solution containing surfactants in water or in 1%-10% ethanol)
0.5	C=C(CC(=O)OC)C(=O)OC [Dimethyl itaconate]		
0.002	Cc1cc(CC(C)CC(C)(C)C)n(O)c(=O)c1 (centres unmarked) [Piroctone olamine, 1-Hydroxy-4-methyl-6-(2,4,4-trimethylpentyl)-2-(1H)pyridinone,2-aminoethanol salt]	soluble	soluble

Structure (SMILES)	Minimum inhibitory concentration (MIC) [1] [wt %]	solubility in 10% ethanol in water ([2]; 10% ethanol in water)	solubility in solution containing surfactants in water or in 1%-10% ethanol ([2]; solution containing surfactants in water or in 1%-10% ethanol)
O=C([O-])c1ccccc1.[Na+] [Sodium benzoate]	0.5		
